Experimental data as given in patent US20210001138A1, “ELECTROSTATIC DRUG DELIVERY” (Nano Hesgarsazan Salamat Arya, priority 2019, published 2021).

Tested on: MC4L2 mice tumor
Experiment: Sonography of MC4L2 mice tumor after injection of the free drug, with or without electrostatic field
Conditions: for trace of tumor after the second injection period: every 3 days
Procedure: Here, three injection periods of Cisplatin were carried out every 3 days for a group of mice having a MC4L2 mice tumor as an example of triple-positive breast cancer. About 20 mg/kg of Cisplatin was applied for a Control sample with a MC4L2 mice tumor without applying an electrostatic field.
Here, four injection periods of Doxorubicin were carried out every 3 days for a group of mice having a MC4L2 mice tumor as an example of triple-positive breast cancer. About 10 mg/kg of Doxorubicin was applied for a Control sample with a MC4L2 mice tumor without applying an electrostatic field. […] All sonography images were taken after about 10 days of treatments, and all drug injections were done every about 3 days.

## COc1cccc2c1C(=O)c1c(O)c3c(c(O)c1C2=O)C[C@@](O)(C(=O)CO)C[C@@H]3O[C@H]1C[C@H](N)[C@H](O)[C@H](C)O1 [Doxorubicin]
About 1 mg/kg Doxorubicin followed by electrostatic field, sonography after about 10 days, FIG. 9B
  tumor outcome in sonography images: removed completely
About 1 mg/kg Doxorubicin per period, then DC electrostatic field 60 V to 120 V via conductive patch, sample mouse No. 2
  trace of tumor after the second injection period: no observable trace of tumor

## N.N.[Cl][Pt][Cl] [Cisplatin]
About 5 mg/kg Cisplatin followed by electrostatic field, FIG. 5B
  tumor outcome in sonography images: removed completely
About 5 mg/kg Cisplatin per period, then DC electrostatic field -60 V to -120 V via conductive patch, sample mouse No. 1
  trace of tumor after the second injection period: no observable trace of tumor
About 20 mg/kg Cisplatin, without electrostatic field, FIG. 4B vs FIG. 4A
  reduction in tumor volume: about 60%
